Laboratory results taken from patent US20250114374A1, “BCL-2 INHIBITORS” (Newave Pharmaceutical Inc., priority 2021, published 2025).

System: RS4; 11 with G101V mutation
Experiment: In vitro anti-proliferation assay (ATPlite luminescence) in BCL-2-dependent ALL cell line RS4;11 with G101V mutation
Type: cell-based
Settings: Homo sapiens, RS4-11, 72 h; read-out: RS411-G101V IC50
How it was run: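 RS4;11 G101V cells at about 1×10^4 per well were exposed to a range of compound concentrations for about 72 h in medium with 10% FBS. Cellular ATP was measured by ATPlite luminescence after lysis, and IC50 was derived from the dose-response.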

| IC50 | SMILES |
| --- | --- |
| 30.6 nM | CC(C)Oc1ccccc1[C@@H]1CN([C@H]2COCc3cc(F)c(F)cc32)CCN1C1CC2(CCN(c3ccc(C(=O)NS(=O)(=O)c4cc5c(c([N+](=O)[O-])c4)N[C@H](C4CCOCC4)CO5)c(N4c5cc6cc[nH]c6nc5O[C@H]5COCC[C@@H]54)c3)CC2)C1 [Example 216, 4-(2-((R)-4-((R)-6,7-difluoroisochroman-4-yl)-2-(2-isopropoxyphenyl)piperazin-1-yl)-7-azaspiro[3.5]nonan-7-yl)-N-(((R)-5-nitro-3-(tetrahydro-2H-pyran-4-yl)-3,4-dihydro-2H-benzo[b][1,4]oxazin-7-yl)sulfonyl)-2-((5aS,9aR)-6,7,9,9a-tetrahydro-1H-pyrano[3,4-b]pyrrolo[3′,2′:5,6]pyrido[3,2-e][1,4]oxazin-5(5aH)-yl)benzamide] |
| 94.9 nM | CC(C)Oc1ccccc1[C@@H]1CN([C@@H]2COCc3cc(F)c(F)cc32)CCN1C1CC2(CCN(c3ccc(C(=O)NS(=O)(=O)c4cc5c(c([N+](=O)[O-])c4)N[C@H](C4CCOCC4)CO5)c(N4c5cc6cc[nH]c6nc5O[C@H]5COCC[C@@H]54)c3)CC2)C1 [Example 217, 4-(2-((R)-4-((S)-6,7-difluoroisochroman-4-yl)-2-(2-isopropoxyphenyl)piperazin-1-yl)-7-azaspiro[3.5]nonan-7-yl)-N-(((R)-5-nitro-3-(tetrahydro-2H-pyran-4-yl)-3,4-dihydro-2H-benzo[b][1,4]oxazin-7-yl)sulfonyl)-2-((5aS,9aR)-6,7,9,9a-tetrahydro-1H-pyrano[3,4-b]pyrrolo[3′,2′:5,6]pyrido[3,2-e][1,4]oxazin-5(5aH)-yl)benzamide] |
| 121 nM | CC(C)Oc1ccccc1[C@@H]1CN([C@H]2CCOc3nc(N4CCOC[C@@H]4C)c(F)cc32)CCN1C1CC2(CCN(c3ccc(C(=O)NS(=O)(=O)c4cc5c(c([N+](=O)[O-])c4)N[C@H](C4CCOCC4)CO5)c(N4c5cc6cc[nH]c6nc5O[C@H]5COCC[C@@H]54)c3)CC2)C1 [Example 218, 4-(2-((R)-4-((S)-6-fluoro-7-((S)-3-methylmorpholino)-3,4-dihydro-2H-pyrano[2,3-b]pyridin-4-yl)-2-(2-isopropoxyphenyl)piperazin-1-yl)-7-azaspiro[3.5]nonan-7-yl)-N-(((R)-5-nitro-3-(tetrahydro-2H-pyran-4-yl)-3,4-dihydro-2H-benzo[b][1,4]oxazin-7-yl)sulfonyl)-2-((5aS,9aR)-6,7,9,9a-tetrahydro-1H-pyrano[3,4-b]pyrrolo[3′,2′:5,6]pyrido[3,2-e][1,4]oxazin-5(5aH)-yl)benzamide] |
| 56.3 nM | CC(C)Oc1ccccc1[C@@H]1CN([C@@H]2CCOc3nc(N4CCOC[C@@H]4C)c(F)cc32)CCN1C1CC2(CCN(c3ccc(C(=O)NS(=O)(=O)c4cc5c(c([N+](=O)[O-])c4)N[C@H](C4CCOCC4)CO5)c(N4c5cc6cc[nH]c6nc5O[C@H]5COCC[C@@H]54)c3)CC2)C1 [Example 219, 4-(2-((R)-4-((R)-6-fluoro-7-((S)-3-methylmorpholino)-3,4-dihydro-2H-pyrano[2,3-b]pyridin-4-yl)-2-(2-isopropoxyphenyl)piperazin-1-yl)-7-azaspiro[3.5]nonan-7-yl)-N-(((R)-5-nitro-3-(tetrahydro-2H-pyran-4-yl)-3,4-dihydro-2H-benzo[b][1,4]oxazin-7-yl)sulfonyl)-2-((5aS,9aR)-6,7,9,9a-tetrahydro-1H-pyrano[3,4-b]pyrrolo[3′,2′:5,6]pyrido[3,2-e][1,4]oxazin-5(5aH)-yl)benzamide] |
| 130 nM | CC(C)Oc1ccccc1[C@@H]1CN([C@H]2COc3c(F)cc(F)cc3C2)CCN1C1CC2(CCN(c3ccc(C(=O)NS(=O)(=O)c4cc5c(c([N+](=O)[O-])c4)N[C@H](C4CCOCC4)CO5)c(N4c5cc6cc[nH]c6nc5O[C@H]5COCC[C@@H]54)c3)CC2)C1 [Example 221, 4-(2-((R)-4-((R)-6,8-difluorochroman-3-yl)-2-(2-isopropoxyphenyl)piperazin-1-yl)-7-azaspiro[3.5]nonan-7-yl)-N-(((R)-5-nitro-3-(tetrahydro-2H-pyran-4-yl)-3,4-dihydro-2H-benzo[b][1,4]oxazin-7-yl)sulfonyl)-2-((5aS,9aR)-6,7,9,9a-tetrahydro-1H-pyrano[3,4-b]pyrrolo[3′,2′:5,6]pyrido[3,2-e][1,4]oxazin-5(5aH)-yl)benzamide] |

More lines, now with the values behind:

| SMILES | IC50 |
| --- | --- |
| CC(C)Oc1ccccc1[C@@H]1CN([C@@H]2COc3c(F)cc(F)cc3C2)CCN1C1CC2(CCN(c3ccc(C(=O)NS(=O)(=O)c4cc5c(c([N+](=O)[O-])c4)N[C@H](C4CCOCC4)CO5)c(N4c5cc6cc[nH]c6nc5O[C@H]5COCC[C@@H]54)c3)CC2)C1 [Example 220, 4-(2-((R)-4-((S)-6,8-difluorochroman-3-yl)-2-(2-isopropoxyphenyl)piperazin-1-yl)-7-azaspiro[3.5]nonan-7-yl)-N-(((R)-5-nitro-3-(tetrahydro-2H-pyran-4-yl)-3,4-dihydro-2H-benzo[b][1,4]oxazin-7-yl)sulfonyl)-2-((5aS,9aR)-6,7,9,9a-tetrahydro-1H-pyrano[3,4-b]pyrrolo[3′,2′:5,6]pyrido[3,2-e][1,4]oxazin-5(5aH)-yl)benzamide] | 261 nM |
| CC(C)Oc1ccccc1[C@@H]1CN(c2ccncc2)CCN1C1CC2(CCN(c3ccc(C(=O)NS(=O)(=O)c4cc5c(c([N+](=O)[O-])c4)N[C@H](C4CCOCC4)CO5)c(N4c5cc6cc[nH]c6nc5O[C@H]5COCC[C@@H]54)c3)CC2)C1 [Example 223, 4-(2-((R)-2-(2-isopropoxyphenyl)-4-(pyridin-4-yl)piperazin-1-yl)-7-azaspiro[3.5]nonan-7-yl)-N-(((R)-5-nitro-3-(tetrahydro-2H-pyran-4-yl)-3,4-dihydro-2H-benzo[b][1,4]oxazin-7-yl)sulfonyl)-2-((5aS,9aR)-6,7,9,9a-tetrahydro-1H-pyrano[3,4-b]pyrrolo[3′,2′:5,6]pyrido[3,2-e][1,4]oxazin-5(5aH)-yl)benzamide] | 223 nM |

Same assay, conditions: cellular anti-proliferative IC50, about 72 hours, medium with 10% FBS, ATPlite; read-out: RS411-G101V IC50

| SMILES | IC50 |
| --- | --- |
| CC(C)Oc1ccccc1[C@@H]1CN(c2ccccc2)CCN1C1CC2(CCN(c3ccc(C(=O)NS(=O)(=O)c4cc5c(c([N+](=O)[O-])c4)N[C@H](C4CCOCC4)CO5)c(N4c5cc6cc[nH]c6nc5O[C@H]5COCC[C@@H]54)c3)CC2)C1 [Example 222, 2-[(3R,8S)-2,5-dioxa-9,15,17-triazatetracyclo[8.7.0.0^{3,8}.0^{12,16}]heptadeca-1(10),11,13,16-tetraen-9-yl]-4-{2-[(2R)-2-(2-isopropoxyphenyl)-4-phenylpiperazin-1-yl]-7-azaspiro[3.5]nonan-7-yl}-N-[(3R)-5-nitro-3-(oxan-4-yl)-3,4-dihydro-2H-1,4-benzoxazin-7-ylsulfonyl]benzamide] | 240 nM |
| CC(C)Oc1ccccc1[C@@H]1CN(c2cccnc2)CCN1C1CC2(CCN(c3ccc(C(=O)NS(=O)(=O)c4cc5c(c([N+](=O)[O-])c4)N[C@H](C4CCOCC4)CO5)c(N4c5cc6cc[nH]c6nc5O[C@H]5COCC[C@@H]54)c3)CC2)C1 [Example 224, 2-[(3R,8S)-2,5-dioxa-9,15,17-triazatetracyclo[8.7.0.0^{3,8}.0^{12,16}]heptadeca-1(10),11,13,16-tetraen-9-yl]-4-{2-[(2R)-2-(2-isopropoxyphenyl)-4-(pyridin-3-yl)piperazin-1-yl]-7-azaspiro[3.5]nonan-7-yl}-N-[(3R)-5-nitro-3-(oxan-4-yl)-3,4-dihydro-2H-1,4-benzoxazin-7-ylsulfonyl]benzamide] | 136 nM |
